The values below are quoted from earlier work in patent publication US20240033223A1 (SICHUAN CREDIT PHARMACEUTICAL CO., LTD, priority 2020, published 2024).

The structures appear in SMILES notation.

The conditions of the series: aqueous preparation (U.S. Pat. No. 4,925,860).

For the compound `O=C1NC(=O)C(c2ccccc2)(c2ccccc2)N1` [Impurity C, Phenytoin], the Solubility in water entry is recorded as “water-insoluble”.
